Key:
S. aureus MRSA strains = assay: Bioscreen-C dose response growth curve of MRSA over 24 hours; format: cell-based, Staphylococcus aureus; settings: HCl salts, doses from 100 μg downwards, 10 mM sodium bicarbonate buffer pH-7.4, OD 420-580 nm
Protocol: (§1) Bioscreen-C instrument was used to detect the MIC and MBC of PNA-CPP derivatives against S. aureus MRSA strains. Different concentration of PNA-CPP derivatives were prepared in 10 mM of sodium bicarbonate buffer pH-7.4 and added to ˜5.0 Log 10 CFUs in a Honey comb Bioscreen-C plate.
Compound I-V were assayed against MRSA. FIG. 6-10 show a dose response growth curve of MRSA in presence of increasing concentrations of Compound I-HCl (FIG. 6), Compound II-HCl (FIG. 7), Compound III-HCl (FIG. 8), Compound IV-HCl (FIG. 9), and Compound V-HCl (FIG. 10), determined in a Bioscreen-C spectrophotometer.

[1] = test system: MRSA clinical isolates and ATCC strains; assay: MIC and MBC against MRSA clinical isolates and ATCC strains; format: cell-based, Staphylococcus aureus; design: unit not given here
Protocol: as §1
After the growth curve assays, the number of colony forming units (CFU) were counted to determine the MIC and MBC of each PNA-CPP derivative against MRSA.
Minimum inhibitory concentration (MIC) analyses were performed as described in Clinical and Laboratory Standards Institute, Methods for Dilution Antimicrobial Susceptibility Tests for Bacteria that Grow Aerobically, 7th ed.; Approved Standard M7-A7; CLSI: Wayne, Pa., USA, 2006; volume 26, No. 2. […] MIC was determined as the lowest concentration of agent that inhibits bacterial growth detected at A420-580 nm.

MRSA = assay: In vitro assay of emergence of resistance, MRSA, 8 days; format: cell-based, S. aureus; settings: 6.25 μg (twice MBC) in one ml Mueller Hinton broth, 37° C., through Day 8
Protocol: To determine the development of resistance in MRSA and MSSA strains against Compound I-HCl and Compound IV-HCl, an in vitro assay was performed. Twice the amount of MBC of Compound I-HCl (6.25 μg) and Compound IV-HCl (6.25 μg) were mixed with ˜5.0 log 10 CFUs in one ml of Mueller Hinton broth and incubated for 8 days at 37° C. Eight tubes of culture were used for each drug and bacterial strains. At 24 hours of interval, culture tubes were centrifuged and spent media were replaced with fresh media in presence of Compound I-HCl and Compound IV-HCl and further incubated to observe the growth of S. aureus strains. At 24 hours interval, one set of culture tube exposed to drugs were selected and a fraction of the culture used to plate on agar plates to observe the reduction of CFU counts as compared to untreated control. The rest of the culture samples were allowed to grow without any drug for additional 24 hours to observe the growth of S. aureus strains. One set of culture tubes without drug was used as the positive control.

Substance: Compound I: PNA-CPP conjugate: PNA cgt cat acg cgg tcc (SEQ ID NO: 51), AEEA linker, CPP BXRXRRXRRXRRXR; FIG. 1 (CGTCATACGCGGTCC; all peptide nucleic acid (PNA); cell-penetrating peptide attached via AEEA linker, further chemistry not fully specified)
- lowest dose at which no MRSA growth was observed (growth curve) (S. aureus MRSA strains): 3.13 µg
- MBC ([1]; isolate MRSA#1): 1.56
- MIC ([1]; isolate MRSA#1): 0.78
- MBC ([1]; isolate MRSA#3): 3.25
- MIC ([1]; isolate MRSA#3): 1.56
- MBC ([1]; isolate MRSA#6): 1.56/1.56
- MIC ([1]; isolate MRSA#6): 1.56/1.56
- MBC ([1]; isolate MRSA#15): 3.25/3.25
- MIC ([1]; isolate MRSA#15): 3.25/3.25
- MBC ([1]; isolate MRSA#28): 3.25/3.25
- MIC ([1]; isolate MRSA#28): 3.25/3.25
- MBC ([1]; isolate MRSA#31): 3.25/3.25
- MIC ([1]; isolate MRSA#31): 3.25/3.25
- MBC ([1]; isolate MRSA#37): 3.25
- MIC ([1]; isolate MRSA#37): 1.56
- MBC ([1]; isolate MRSA#39): 3.25/3.25
- MIC ([1]; isolate MRSA#39): 3.25/3.25
- MBC ([1]; isolate MRSA#42): 1.56/1.56
- MIC ([1]; isolate MRSA#42): 1.56/1.56
- MBC ([1]; isolate MRSA#43): 3.25
- MIC ([1]; isolate MRSA#43): 1.56
- MBC ([1]; strain USA 300): 3.25
- MIC ([1]; strain USA 300): 1.56
- MRSA CFU counts and emergence of resistant strains (MRSA): reduced MRSA CFUs without emergence of resistant strains
